According to PubChem BioAssay AID330 (DTP/NCI, 2004):
Values joined by “and” are separate entries in the source; they are usually repeats but may differ in a detail not shown here. Equal entries are not always repeated. Toxic doses and inconclusive results are not listed. Rule for the calls: active = survival T/C of 150% or more; inactive = T/C below 125% in these data.

Test system: P388 leukemia ip, CD2F1 mice, survival T/C
Test: NCI In Vivo Anticancer Drug Screen. Data for tumor model P388 Leukemia (intraperitoneal) in CD2F1 (CDF1) mice
Conditions: endpoint: median survival time, higher = longer survival
How it was run: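 Mice carrying the transplanted tumor received test compound or vehicle. Survival was recorded in each group, and the value is the treated-group measurement divided by that of the vehicle-treated control group.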

[1] = dose: 100.0 mg/kg/injection, schedule: Q04DX003 (ip), vehicle: saline with Tween-80
[2] = dose: 6.25 mg/kg/injection, schedule: Q01DX009 (ip), vehicle: saline
[3] = dose: 12.5 mg/kg/injection, schedule: Q01DX009 (ip), vehicle: saline
[4] = dose: 25.0 mg/kg/injection, schedule: Q01DX009 (ip), vehicle: saline
[5] = dose: 60.0 mg/kg/injection, schedule: Q01DX005 (ip), vehicle: Klucel (hydroxypropylcellulose) (HPC)
[6] = dose: 120.0 mg/kg/injection, schedule: Q01DX005 (ip), vehicle: Klucel (hydroxypropylcellulose) (HPC)
[7] = dose: 12.5 mg/kg/injection, schedule: Q01DX005 (ip), vehicle: saline with Tween-80
[8] = dose: 25.0 mg/kg/injection, schedule: Q01DX005 (ip), vehicle: saline with Tween-80
[9] = dose: 50.0 mg/kg/injection, schedule: Q01DX005 (ip), vehicle: saline with Tween-80
[10] = dose: 50.0 mg/kg/injection, schedule: Q01DX009 (ip), vehicle: Klucel (hydroxypropylcellulose) (HPC)
[11] = dose: 100.0 mg/kg/injection, schedule: Q01DX009 (ip), vehicle: Klucel (hydroxypropylcellulose) (HPC)
[12] = dose: 200.0 mg/kg/injection, schedule: Q01DX009 (ip), vehicle: Klucel (hydroxypropylcellulose) (HPC)
[13] = dose: 60.0 mg/kg/injection, schedule: Q01DX005 (ip), vehicle: saline with Tween-80
[14] = dose: 120.0 mg/kg/injection, schedule: Q01DX005 (ip), vehicle: saline with Tween-80
[15] = dose: 240.0 mg/kg/injection, schedule: Q01DX005 (ip), vehicle: saline with Tween-80
[16] = dose: 100.0 mg/kg/injection, schedule: Q01DX005 (ip), vehicle: saline with Tween-80
[17] = dose: 200.0 mg/kg/injection, schedule: Q01DX005 (ip), vehicle: saline with Tween-80
[18] = dose: 50.0 mg/kg/injection, schedule: Q01DX009 (ip), vehicle: saline with Tween-80
[19] = dose: 100.0 mg/kg/injection, schedule: Q01DX009 (ip), vehicle: saline with Tween-80
[20] = dose: 200.0 mg/kg/injection, schedule: Q01DX009 (ip), vehicle: saline with Tween-80
[21] = dose: 50.0 mg/kg/injection, schedule: Q01DX009 (ip), vehicle: saline
[22] = dose: 100.0 mg/kg/injection, schedule: Q01DX009 (ip), vehicle: saline
[23] = dose: 200.0 mg/kg/injection, schedule: Q01DX009 (ip), vehicle: saline

Measured: T/C

S=c1nc[nH]c2c1ncn2C1C=CCCC1 (centres undefined)
inactive: [1] 90 % of control | dose: 176.0 mg/kg/injection, schedule: Q01DX009 (ip), vehicle: saline with Tween-80 100 % of control | dose: 200.0 mg/kg/injection, schedule: Q04DX003 (ip), vehicle: saline with Tween-80 90 % of control | dose: 264.0 mg/kg/injection, schedule: Q01DX009 (ip), vehicle: saline with Tween-80 95 % of control | dose: 400.0 mg/kg/injection, schedule: Q01DX009 (ip), vehicle: saline with Tween-80 118 % of control | dose: 400.0 mg/kg/injection, schedule: Q04DX003 (ip), vehicle: saline with Tween-80 90 % of control

C[C@H]1CN[C@@H]2[C@@H](C)[C@H]3[C@@H](C[C@H]4[C@@H]5CC[C@H]6C[C@@H](N)CC[C@]6(C)[C@H]5CC[C@]34C)O[C@@]2(O)C1
inactive: dose: 3.12 mg/kg/injection, schedule: Q01DX009 (ip), vehicle: saline 103 % of control | [2] 94 % of control | [3] 100 % of control | [4] 98 % of control

CCN1CCC(O)(/C=C/c2ccccc2)C(C(=O)/C=C/c2ccccc2)C1 (centres undefined)
inactive: [5] 108 % of control | [6] 111 % of control

O=C1CN(c2ccccc2)CC(=O)N2Cc3ccccc3CN12
inactive: dose: 6.25 mg/kg/injection, schedule: Q01DX005 (ip), vehicle: saline with Tween-80 96 % of control | [7] 100 % of control | [8] 98 % of control

CC1OC(c2ccc3c(c2O)C(=O)c2ccc(CC(C)(O)CC(=O)O)cc2C3=O)CC(O)C1O (centres undefined)
inactive: [7] 90 % of control | [8] 93 % of control | [9] 96 % of control | dose: 100.0 mg/kg/injection, schedule: Q01DX005 (ip), vehicle: suspension in saline 110 % of control | dose: 200.0 mg/kg/injection, schedule: Q01DX005 (ip), vehicle: suspension in saline 101 % of control

CC(C)(O)c1ccccc1Br
inactive: [10] 98 % of control | [11] 99 % of control | [12] 102 % of control

O=C1S/C(=C2\C(=O)N(CN3CCCCC3)c3ccccc32)C(=O)N1CN1CCCCC1
inactive: [5] 99 % of control | [6] 96 % of control | dose: 240.0 mg/kg/injection, schedule: Q01DX005 (ip), vehicle: Klucel (hydroxypropylcellulose) (HPC) 92 % of control

CN(C)c1ccc(/C(O)=C\c2ncnc3ccccc23)cc1
inactive: [13] 94 % of control | [14] 94 % of control | [15] 93 % of control

NC1=NCc2c(sc3c2CCCC3)N1
inactive: dose: 12.5 mg/kg/injection, schedule: Q01DX005 (ip), vehicle: Klucel (hydroxypropylcellulose) (HPC) 104 % of control | dose: 25.0 mg/kg/injection, schedule: Q01DX005 (ip), vehicle: Klucel (hydroxypropylcellulose) (HPC) 104 % of control | dose: 50.0 mg/kg/injection, schedule: Q01DX005 (ip), vehicle: Klucel (hydroxypropylcellulose) (HPC) 98 % of control and 103 % of control

CC1=C(O)CC(/C(C)=C\Cl)OC1=O (centres undefined)
inactive: dose: 100.0 mg/kg/injection, schedule: Q04DX002 (ip), vehicle: Klucel (hydroxypropylcellulose) (HPC) 101 % of control | dose: 200.0 mg/kg/injection, schedule: Q04DX002 (ip), vehicle: Klucel (hydroxypropylcellulose) (HPC) 98 % of control | dose: 400.0 mg/kg/injection, schedule: Q04DX002 (ip), vehicle: Klucel (hydroxypropylcellulose) (HPC) 104 % of control

O=C1C2C3C=CC(O3)C2C(=O)N1/N=C/c1cccc2ccccc12 (centres undefined)
inactive: [9] 99 % of control | [16] 96 % of control | [17] 89 % of control

O=[N+]([O-])/N=c1/nc2scc(-c3ccc([N+](=O)[O-])cc3)n2s1
inactive: dose: 1.87 mg/kg/injection, schedule: Q01DX005 (ip), vehicle: saline with Tween-80 99 % of control | dose: 3.75 mg/kg/injection, schedule: Q01DX005 (ip), vehicle: saline with Tween-80 107 % of control | dose: 7.5 mg/kg/injection, schedule: Q01DX005 (ip), vehicle: saline with Tween-80 99 % of control and 97 % of control | dose: 30.0 mg/kg/injection, schedule: Q01DX005 (ip), vehicle: saline with Tween-80 91 % of control | [13] 106 % of control | [15] 87 % of control

Cc1ccc(-c2cssc2=S)cc1
inactive: dose: 25.0 mg/kg/injection, schedule: Q01DX009 (ip), vehicle: saline with Tween-80 96 % of control | [18] 95 % of control | [19] 92 % of control | [20] 90 % of control

CNC(=S)C#N
inactive: dose: 25.0 mg/kg/injection, schedule: Q01DX005 (ip), vehicle: saline + Tween-80 + alcohol 122 % of control | dose: 50.0 mg/kg/injection, schedule: Q01DX005 (ip), vehicle: saline + Tween-80 + alcohol 111 % of control and 119 % of control | dose: 100.0 mg/kg/injection, schedule: Q01DX005 (ip), vehicle: saline + Tween-80 + alcohol 119 % of control

CC(C)C(Br)C(Br)c1ccccc1 (centres undefined)
inactive: [18] 100 % of control | [19] 104 % of control | [20] 104 % of control

C1CCC2[N-]CC3CCCCC3[N-]CC3CCCCC3[N-]CC3CCCCC3[N-]CC2C1.[Ni+2].[O-][Cl+3]([O-])([O-])O (centres undefined)
inactive: [2] 96 % of control

CSc1nc(N)c(NS(=O)(=O)c2ccc([N+](=O)[O-])cc2)c(=O)[nH]1
inactive: dose: 15.0 mg/kg/injection, schedule: Q01DX005 (ip), vehicle: Klucel (hydroxypropylcellulose) (HPC) 99 % of control | dose: 30.0 mg/kg/injection, schedule: Q01DX005 (ip), vehicle: Klucel (hydroxypropylcellulose) (HPC) 87 % of control | [5] 91 % of control and 93 % of control

CCOP(=O)(CC1OCC2(CO1)COC(CP(=O)(OCC)OCC)OC2)OCC (centres undefined)
inactive: [3] 87 % of control | [4] 94 % of control | [21] 101 % of control and 92 % of control | [22] 106 % of control | [23] 100 % of control

CP1(=O)CCc2c1ccc1ccccc21 (centres undefined)
inactive: dose: 100.0 mg/kg/injection, schedule: Q04DX002 (ip), vehicle: saline 107 % of control | dose: 200.0 mg/kg/injection, schedule: Q04DX002 (ip), vehicle: saline 101 % of control

COC1/C=C/OC2(C)Oc3c(C)c(O)c4c(O)c(c(/C=N/N5CCCN(C)CC5)c(O)c4c3C2=O)NC(=O)/C(C)=C\C=C\C(C)C(O)C(C)C(O)C(C)C(OC(C)=O)C1C (centres undefined)
inactive: [18] 104 % of control | [19] 100 % of control | [20] 102 % of control

COC(=O)CCP(CCC(=O)OC)c1ccccc1
inactive: [13] 99 % of control | [14] 99 % of control | [15] 103 % of control

NS(=O)(=O)c1ccc(N=NC2Sc3nc4ccccc4n3C2=O)cc1 (centres undefined)
inactive: [5] 94 % of control | [6] 91 % of control

CC(C)=C/C(C)=N/NC(N)=O
inactive: dose: 12.5 mg/kg/injection, schedule: Q04DX003 (ip), vehicle: saline with Tween-80 98 % of control | dose: 25.0 mg/kg/injection, schedule: Q04DX003 (ip), vehicle: saline with Tween-80 94 % of control | dose: 50.0 mg/kg/injection, schedule: Q04DX003 (ip), vehicle: saline with Tween-80 91 % of control | [1] 94 % of control

CSC(=S)n1nc(-c2ccccc2)c(N=Nc2ccc(C)cc2)c1-c1ccccc1
inactive: [9] 98 % of control | [16] 91 % of control | [17] 93 % of control

CCCCC1C(=O)N2C=C(c3ccccc3)c3ccccc3N2C1=O (centres undefined)
inactive: dose: 25.0 mg/kg/injection, schedule: Q01DX009 (ip), vehicle: Klucel (hydroxypropylcellulose) (HPC) 104 % of control | [10] 111 % of control | [11] 95 % of control | [12] 105 % of control | dose: 400.0 mg/kg/injection, schedule: Q01DX009 (ip), vehicle: Klucel (hydroxypropylcellulose) (HPC) 95 % of control

N#Cc1ccc(CC(O)(c2ccccc2)c2ccccc2)cc1
inactive: [21] 99 % of control | [22] 101 % of control | [23] 95 % of control | dose: 400.0 mg/kg/injection, schedule: Q01DX009 (ip), vehicle: saline 87 % of control
